Laboratory results as given in patent US6221637A, “Xanthene derivatives, their production and use” (Takeda Chemical Industries, Ltd., priority 1996, dated 2001).
≈ marks a conversion by molar mass, not a printed value.

Legend:
binding of B7-1 to CD28 = target: T1, binding of B7-1 to CD28 (Homo sapiens, UniProt P10747+P33681); test: Binding inhibition test using soluble B7-1-Ig; settings: 10 μg/ml soluble B7-1-Ig; fixed CD28-expressing CHO cells; 30 minutes at room temperature; read-out: IC50 (concentration for 50% inhibition of binding) (converted)
T1 construct: ligating the Fc region of human IgG to the C-terminal side of the extracellular region of B7-1; Fc region of human IgG (from plasmid pTB1455); expressed in transfected cells; soluble B7-1-Ig made in house by sB7-1-Ig-CHO-20 and purified from its supernatant
T1 sequence (P10747 19-220): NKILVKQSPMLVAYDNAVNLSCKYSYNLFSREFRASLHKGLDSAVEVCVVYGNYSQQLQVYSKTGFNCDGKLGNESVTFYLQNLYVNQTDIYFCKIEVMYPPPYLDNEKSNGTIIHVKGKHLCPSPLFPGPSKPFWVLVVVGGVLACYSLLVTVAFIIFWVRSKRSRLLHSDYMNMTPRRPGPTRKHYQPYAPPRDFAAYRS
T1 sequence (P33681 with tags, fused parts or gaps): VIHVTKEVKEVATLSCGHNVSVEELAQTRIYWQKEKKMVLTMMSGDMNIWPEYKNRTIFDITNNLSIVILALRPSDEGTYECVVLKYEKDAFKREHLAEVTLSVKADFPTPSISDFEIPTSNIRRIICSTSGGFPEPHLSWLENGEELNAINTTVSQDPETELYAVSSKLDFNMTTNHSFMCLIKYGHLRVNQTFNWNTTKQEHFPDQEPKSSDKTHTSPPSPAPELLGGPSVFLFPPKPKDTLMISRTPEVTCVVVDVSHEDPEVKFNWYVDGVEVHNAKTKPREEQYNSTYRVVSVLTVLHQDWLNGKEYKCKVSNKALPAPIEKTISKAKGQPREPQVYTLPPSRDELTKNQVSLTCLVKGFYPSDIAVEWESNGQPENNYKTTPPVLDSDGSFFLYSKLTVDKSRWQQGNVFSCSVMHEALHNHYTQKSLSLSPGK
Protocol: b) Expression of CD28 in CHO cells
Using petri dishes 10 cm in diameter, 1×10^5 dihydrofolate reductase deficient (DHFR^-) CHO cells were cultured in an αMEM medium containing 10% fetal bovine serum for 24 hours. To these cells, the CD28cDNA expression plasmid pAKKO-CD28as obtained in Reference Example 1 (10 μg) was introduced by the calcium phosphate method. Forty-eight hours later, the medium was replaced with an αMEM medium (no nucleic acid contained) containing 10% dialyzed fetal bovine serum, and cells incorporating the plasmid in their chromosome were selected. For these selected cells, CD28 expression was examined by flow cytometry (EPICS ELITE, COULTER), and cells showing high expression of CD28were obtained. These cells were cloned by the limiting dilution method to obtain CD28-CHO-11, a cell line that stably expresses high amount of CD28. […]
c) Establishment of CHO cells that produce soluble B7-1-Ig
Using petri dishes 10 cm in diameter, 1×10^5 dihydrofolate reductase deficient (DHFR^31 ) CHO cells were cultured in an αMEM medium containing 10% fetal bovine serum for 24 hours. To these cells, 10 μg of the expression plasmid encoding soluble B7-1-Ig as obtained in Reference Example 22 was introduced by the calcium phosphate method. Forty-eight hours later, the medium was replaced with an αMEM medium (no nucleic acid contained) containing 10% dialyzed fetal bovine serum, and cells incorporating the plasmid into their chromosome were selected. For these selected cells, the amount of soluble B7-1-Ig produced in the culture supernatant was measured by EIA, and cells showing high productivity were obtained. These cells were cloned by the limiting dilution method to obtain sB7-1-Ig-CHO-20, a cell line that stably produces soluble B7-1-Ig. […]
d) Preparation of soluble B7-1-Ig
Using petri dishes 15 cm in diameter, the soluble B7-1-Ig-producing CHO cells obtained in term c) above (sB7-1-Ig-CHO-20) were cultured in an αMEM medium containing 10% fetal bovine serum to yield 5 l of culture supernatant. This culture supernatant was crudely purified using a protein G column (Chromatop Superprotein G, […] I.D.×10 cm, NGK Insulators, Ltd.) and further purified by gel filtration chromatography (TSKgel G3000SW, […] I.D.×[…], Tosoh) to yield 20 mg of a purified standard preparation.
Binding inhibition test using soluble B7-1-Ig
The CHO cells that expressed CD28obtained in Example 122 were suspended in an αMEM medium (no nucleic acid contained) containing 10% dialyzed fetal bovine serum, seeded into 96-well microplates (flat bottom) to 3×10^4 cells/well, and cultured in the presence of 5% CO2 at 37° C. for 48 hours. The culture supernatant was removed by aspiration from each plate to which cells adhered, followed by the addition of phosphate buffer saline (PBS) containing 0.5% paraformaldehyde to fix the cells. After this plate was washed twice with PBS containing 10% Block Ace (Snow Brand Milk Products), 10 μg/ml soluble B7-1-Ig and a sample were added to each well. Binding reaction was carried out by keeping the plate standing at room temperature for 30 minutes. After the reaction, the plate was washed twice with PBS containing 10% Block Ace (Snow Brand Milk Products), followed by the addition of peroxidase-labeledanti-human IgG (Cappel) and 2 hours of reaction. The plate was further washed twice with PBS containing 10% Block Ace (Snow Brand Milk Products), after which 100 μl of a 0.1M citrate buffer containing 6.5 mg/ml ortho-phenylenediamine dihydrochloride (Wako Pure Chemical Industries) and 0.06% hydrogen peroxide was added to each well. Twenty minutes later, the coloring reaction was stopped with 2N sulfuric acid, and the absorbance at 492 nm was determined using a plate reader (BIO-RAD Model 1450).

[1] = test system: interleukin 2 (IL-2) production by human peripheral blood T cells; test: Inhibition test for interleukin 2 (IL-2) production by human peripheral blood T cells; format: cell-based; settings: anti-CD3 antibody coated plates; CHO cells expressing B7-1; 48 hours, 37° C.; read-out: IC50 value (concentration for 50% suppression of interleukin-2 production)
Protocol: a) Expression of B7-1 in CHO cells
Using petri dishes 10 cm in diameter, 1×10^5 Chinese hamster ovary (CHO) cells were cultured in an αMEM medium containing 10% fetal bovine serum for 24 hours. To these cells, the B7-1 cDNA expression plasmid pME-B7-1 as obtained in Reference Example 1 (10 μg) and the neomycin resistance expression plasmid pME-neo (1 μg) were introduced by the calcium phosphate method. Forty-eight hours later, GENETICIN (G418 sulfate, GIBCO) was added to a final concentration of 0.5 mg/ml, and cells that acquired neomycin resistance were selected. For these selected cells, B7-1 expression was examined by flow cytometry (EPICS ELITE, COULTER), and cells showing high expression of B7-1 were obtained. These cells were cloned by the limiting dilution method to obtain B7-1-CHO-22, a cell line that stably expresses high amount of B7-1.
Inhibition test for interleukin 2 (IL-2) production by human peripheral blood T cells
Blood was collected from a healthy normal human, overlaid on lymphocyte separation medium (LSM, Organon Teknica Co.), and centrifuged at room temperature at 2,000 rpm for 20 minutes to obtain human peripheral blood mononuclear cells. […] The IL-2 produced in the culture supernatant was quantified using the HUMAN INTERLEUKIN-2 EIA KIT (Cayman Chemical Co.).

mice = test: Toxicity test; format: in vivo; settings: intraperitoneally, 400 mg/kg

Structure (SMILES)	IC50 (binding of B7-1 to CD28)	IC50 [1]	deaths after intraperitoneal administration (mice)
COC(=O)c1c([S+]([O-])CC(=O)O)c(O)cc2oc3c(Cl)c(C)c(Cl)c(O)c3c(=O)c12 (centres unmarked) [Compound 17, methyl 2-(carboxymethylsulfinyl)-5,7-dichloro-3,8-dihydroxy-6-methyl-9-oxo-9H-xanthene-1-carboxylate]	< 210 nM		
COC(=O)c1c(SCC(=O)O)c(O)cc2oc3c(Cl)c(C)c(Cl)c(O)c3c(=O)c12 [Compound 1]	305 nM	10 µg/mL (≈ 21.8 µM)	no animals died
CCC(=O)Oc1c(Cl)c(C)c(Cl)c2oc3cc(O)c(SCC(=O)O)c(C(=O)OC)c3c(=O)c12 [Compound 27]	< 194 nM		

Further lines, with some results ahead:

IC50 (binding of B7-1 to CD28)	Structure (SMILES)	IC50 [1]	deaths after intraperitoneal administration (mice)
< 166 nM	COC(=O)c1c([S+]([O-])CC(=O)O)c(O)c(I)c2oc3c(Cl)c(C)c(Cl)c(O)c3c(=O)c12 (centres unmarked) [Compound 54, methyl 2-(carboxymethylsulfinyl)-5,7-dichloro-3,8-dihydroxy-4-iodo-6-methyl-9-oxo-9H-xanthene-1-carboxylate]		
171 nM	COC(=O)c1c(SCC(=O)O)c(O)c(I)c2oc3c(Cl)c(C)c(Cl)c(O)c3c(=O)c12 [Compound 40]		
238 nM	COC(=O)c1c(SCC(=O)O)c(O)c([N+](=O)[O-])c2oc3c(Cl)c(C)c(Cl)c(O)c3c(=O)c12 [Compound 132]		
